Here are results for seven compounds from patent publication US6329497A, “Sandramycin analogs” (The Scripps Research Institute, priority 1999, dated 2001).

“Also recorded” adds a separate entry of the source. Read-outs that look alike come from different tables or passages of the source.

The test system of data set [1] is calf thymus DNA. The conditions noted are these: cited from earlier work.
Data set [2] deals with two single mutant and one double mutant of HIV-1 reverse transcriptase. As to conditions: cited from earlier work.
The target in data set [3] is T1, HIV-1 reverse transcriptase (Human immunodeficiency virus type 1 group M subtype B, UniProt P04585). The experiment in a line: Inhibition of HIV-1 reverse transcriptase. As to conditions: for IC50: range given for both agents. Type of data set: biochemical. On the procedure:
The assay was performed according to an available procedure (Goldman, M. E.; Salituro, G. S.; Bowen, J. A.; Williamson, J. M.; Zink, D. L.; Schleif, W. A.; Emini, E. A. Mol. Pharmacol. 1990, 38, 20) with slight modification. A 45 L solution of reaction buffer containing 55 mM Tris·HCl, pH 8.2, 80 mM potassium chloride, 12 mM MgCl2, 1 mM DTT, 50 M EGTA, 2.5 g/mL rA·dT, 0.5 Ci of [^3 H]TTP, 10 M TTP, 1 mg/mL BSA, and 0.01% Triton X-100 was added to a well in a filter cluster plate (Millipore MAHV N45). The reverse transcription reaction was initiated upon addition of the reverse transcriptase (1 unit; 1 unit=10 pmol of [^3 H]TMP incorporated/60 min at 37° C.). The plate was incubated at 37° C. for 90 min. The plate was then placed on ice and 200 µL of 13% trichloroacetic acid and 10 mM sodium pyrophosphate was added to each well. The plate was chilled for 2 h and the liquid vacuumed out through the filter using a Millipore manifold (Millipore MAVM 09601). The precipitate was washed with 1 M and 10 mM sodium pyrophosphate twice. The filter was punched out and placed in a scintillation vial. 4 mL of cocktail was added. Radioactivity was determined by liquid scintillation counting.
The effects of sandramycin and its analogs on HIV-1 reverse transcriptase were determined by incubating the agents and the rA·dT containing buffer at 25° C. for 30 min prior to addition of the reverse transcriptase. Reactions containing no agents were used as controls, and those lacking the transcriptase were used as blanks.

For data set [4], the system named is 5'-d(GCTAGC)2. The experiment in a line: Sandramycin binding to deoxyoligonucleotides, fluorescence quenching, 5'-d(GCTAGC)2. On the procedure:
(§1) Apparent absolute DNA binding constants for 1-22 and related agents including luzopeptin A were obtained by measurement of the fluorescence quenching upon titration addition of calf thymus DNA or the deoxyoligonucleotides 5'-d(GCXXGC)2 where XX=AT, TA, GC, and CG. For each agent, the characteristic fluorescence excitation and emission spectra were recorded in 10 mM Tris-HCl, 75 mM NaCl (pH 7.4) buffer, FIG. 6. For the DNA binding assays which quantitate the fluorescence quenching, excitation outside the absorbance range of DNA was employed and the most intense fluorescence emission at a longer wavelength monitored. For assay of the DNA-induced fluorescence quenching of the agents, a 2 mL buffer solution of Tris-HCl (pH 7.4) and 75 mM NaCl was employed. For titration, small aliquots of DNA were added to solutions of the agents in Tris-HCl buffer (pH 7.4).
(§2) A pronounced downward curvature in an infinite lattice such as calf thymus DNA is recognized to arise in part from neighbor exclusion where the binding of an agent excludes the subsequent binding at nearby sites. […]
(§3) After 5 min of stirring, an initial fluorescence reading was taken with minimum exposure to the excitation beam. […] The results of the titration were analyzed by Scatchard analysis. […]

Data set [5] has as its system 5'-d(GCCGGC)2. The experiment in a line: Sandramycin binding to deoxyoligonucleotides, fluorescence quenching, 5'-d(GCCGGC)2. On the procedure:
as §1, §2, §3

The subject of data set [6] is 5'-d(GCGCGC)2. In words: Sandramycin binding to deoxyoligonucleotides, fluorescence quenching, 5'-d(GCGCGC)2. On the procedure: as §1, §2, §3
Data set [7] has as its system calf thymus DNA. The experiment in a line: DNA binding constant determination for 23 (ethidium bromide displacement; sandramycin titration). On the procedure:
Calf thymus DNA (1.0×10^-5 M in base-pair) was mixed with ethidium bromide (5.0×10^-6 M) resulting in a 2:1 ratio of base-pair:ethidium in a 10 mM Tris-HCl (pH 7.4), 75 mM NaCl buffer solution (2 mL). The fluorescence was calibrated at 24° C. to 100% F and 0% F with a DNA-ethidium buffer solution and ethidium buffer solution, respectively. The premixed DNA-ethidium solution was titrated with small aliquots of 23 (20 to 40 μL of 3 mM […] in DMSO) and incubated at 24° C. for 30 min prior to each fluorescence measurement. The fluorescence was measured with 545 nm excitation and 595 nm emission with a slit width of 10 nm. The absolute binding constant from three such titrations were determined at 50% ethidium bromide displacement as measured by a drop in fluorescence to 50%. The binding constant of ethidium bromide employed to calculate the absolute binding constant with a competitive or noncompetitive binding model^39 was 4.5×10^5 M^-1 and the results are summarized in Table 4.
A 2 mL of sample containing 400 μL of calf thymus DNA (320 μM in base-pair) with or without the presence of 40 μL of 23 (3.2×10^-3 M in DMSO) in 10 mM Tris-HCl (pH 7.4), 75 mM NaCl buffer solution was titrated with small aliquots of sandramycin (1 μL, 1.0×10^-3 M in DMSO). The quenching of fluorescence was measured 5 min after each addition of sandramycin with 360 nm excitation and 530 nm fluorescence.

The test system of data set [8] is five cell lines. The experiment in a line: In vitro cytotoxic activity of key substructure analogs, five cell lines. Type of data set: cell-based.
Data set [9] addresses T1, HIV-1 reverse transcriptase. As to conditions: cited from earlier work.
The subject of data set [10] is L1210 cell line. The experiment in a line: In vitro cytotoxic activity, L1210. It is filed as cell-based.
Data set [11] concerns leukemia cell lines. The conditions noted are these: typical.
Data set [12] relates to HL-60. The experiment in a line: In vitro cytotoxic activity, HL-60. Type of data set: cell-based.
In data set [13] the test system is melanomas, carcinomas, and adenocarcinomas. In words: In vitro cytotoxic activity of 4 against tumor cell lines. Type of data set: cell-based.

For the compound `CC[n+]1c(-c2ccccc2)c2cc(N)ccc2c2ccc(N)cc21` [ethidium bromide], the “binding constant employed to calculate the absolute binding constant” value in data set [1] is 450000 M⁻¹.

Turning to `COc1ccc2nc(C(=O)N[C@@H]3COC(=O)[C@H](C(C)(C)O)N(C)C(=O)CN(C)C(=O)CNC(=O)[C@@H]4[C@@H](OC(=O)[C@@H]5C[C@H]5C)CC=NN4C(=O)[C@H](NC(=O)c4cnc5cc(OC)ccc5n4)COC(=O)[C@H](C(C)(C)O)N(C)C(=O)CN(C)C(=O)CNC(=O)[C@@H]4C(OC(=O)[C@@H]5C[C@H]5C)CC=NN4C3=O)cnc2c1` (stereo partly shown) [quinoxapeptin A], the “relative effectiveness against mutants versus HIV-1 reverse transcriptase” value in [2] is reported as 1-3.

A word on the IC50: it is the concentration at which inhibition is half-maximal. As for `CC(C)[C@H]1C(=O)OC[C@H](NC(=O)c2nc3ccccc3cc2O)C(=O)N2CCCC[C@@H]2C(=O)NCC(=O)N(C)CC(=O)N(C)[C@H](C(C)C)C(=O)OC[C@@H](NC(=O)c2nc3ccccc3cc2O)C(=O)N2CCCC[C@@H]2C(=O)NCC(=O)N(C)CC(=O)N1C` [compound 1, Sandramycin], in data set [3], the “HIV-1 reverse transcriptase inhibition, in words” value is reported as “slightly more effective than luzopeptin A”. This compound registered an IC50 in data set [3] of 0.13 to 0.19 µM. Further, the “G° relative to 5'-d(GCATGC)2” value amounted to 2.5 kJ/mol in [4], 2.5 kJ/mol in [5] and 1.3 kJ/mol in [6].

For “(N-BOC-D-Ser-Pip-Gly-Sar-NMe-Val)2 (Serine Hydroxyl) Dilactone [compound 23]”, in data set [7], the “G° of binding” value was -25.1 kJ/mol. In data set [8] (both chromophores removed), the “cytotoxic activity, in words” value was “inactive”. Also, the “fold less potent than 1” value in data set [8] (five cell lines) is on record as “approx 10^5”.

Regarding `COc1ccc2nc(C(=O)N[C@@H]3COC(=O)[C@H](C(C)(C)O)N(C)C(=O)CN(C)C(=O)CNC(=O)[C@@H]4[C@@H](OC(C)=O)CC=NN4C(=O)[C@H](NC(=O)c4nc5ccc(OC)cc5cc4O)COC(=O)[C@H](C(C)(C)O)N(C)C(=O)CN(C)C(=O)CNC(=O)[C@@H]4[C@@H](OC(C)=O)CC=NN4C3=O)c(O)cc2c1` [luzopeptin A, reference compound], in data set [3], the “fold higher than values reported elsewhere” value was 20-30 and the IC50 was 0.13 to 0.19 µM. Besides, the IC50 in data set [9] (read-out: IC50 reported elsewhere) was 0.007 µM.

Consider `COc1ccc2nc(C(=O)N[C@@H]3COC(=O)[C@H](C(C)(C)O)N(C)C(=O)CN(C)C(=O)CNC(=O)[C@@H]4[C@@H](OC(=O)[C@@H]5C[C@H]5C)CC=NN4C(=O)[C@H](NC(=O)c4cnc5cc(OC)ccc5n4)COC(=O)[C@H](C(C)(C)O)N(C)C(=O)CN(C)C(=O)CNC(=O)[C@@H]4C(OC(C)=O)CC=NN4C3=O)cnc2c1` (stereo partly shown) [quinoxapeptin B], for which the “fold less potent than quinoxapeptin A and luzopeptin A” value in data set [9] is given as “approximately 2”.

Turning to `CC(C)[C@H]1C(=O)OC[C@@H](NC(=O)c2ccc3ccccc3n2)C(=O)N2CCCC[C@H]2C(=O)NCC(=O)N(C)CC(=O)N(C)[C@@H](C(C)C)C(=O)OC[C@@H](NC(=O)c2ccc3ccccc3n2)C(=O)N2CCCC[C@H]2C(=O)NCC(=O)N(C)CC(=O)N1C` [compound 4, (N-(Quinol-inyl-2-carbonyl)-D-Ser-Pip-Gly-Sar-NMe-Val)2 (Serine Hydroxyl) Dilactone], in data set [3], the “HIV-1 reverse transcriptase inhibition, in words” value is on record as “Comparable but slightly less potent inhibition” and the “fold less potent than sandramycin” value was found to be 3. In addition, the “cytotoxic potency, fold less potent than 1” value in [10] was 10. Moreover, the “fold less potent than sandramycin (luzopeptin A or sandramycin)” value in [11] was 4-10. In addition, the “cytotoxic potency, in words” value in data set [12] was “exceptionally potent; also recorded: unusually potent”. Further, the “rank order of cytotoxic potency” value in [13] (carcinomas and adenocarcinomas) was 4>luzopeptin A>sandramycin (1). In addition, the “rank order of cytotoxic potency” value in data set [13] (melanomas) is listed as 4=luzopeptin A>sandramycin (1). In data set [13] (melanomas, carcinomas, adenocarcinomas), the “fold more potent than sandramycin (luzopeptin A or sandramycin)” value is recorded as 1-10,000.
